Key:
Format in all cases: in vivo, human
[1] = test system: liver fat content; test: Phase 1 12-week NAFLD study (Example 1): liver fat content by MRI-PDFF; details: for absolute reduction in liver fat (MRI-PDFF): week 12, NAFLD; for relative reduction in liver fat (MRI-PDFF) / proportion of patients with at least 30% reduction in liver fat content / proportion of patients with at least 50% reduction in liver fat content / proportion of patients with normalization in liver fat content (equal or below 5%): week 12
Description: Provided herein is disclosure of a Phase 1, multicenter, randomized, double-blind, placebo-controlled study to assess the effects of Pemvidutide (also termed herein as ALT-801), the safety of Pemvidutide and effects on hepatic fat fraction, anthropometric parameters, lipid metabolism, inflammatory markers and fibrosis markers in diabetic and non-diabetic (type 2 diabetes) overweight and obese (BMI 28.0 kg/m^2) subjects with NAFLD. This study was designed to assess changes in hepatic fat fraction by MRI-PDFF (magnetic resonance imaging-proton density fat fraction) in diabetic and non-diabetic overweight and obese subjects with NAFLD after 12 weeks of ALT-801 treatment. The trial was conducted without adjunctive diet and exercise interventions. The study assessed changes in body weight, lipid metabolism, metabolic markers, and inflammatory markers and safety and tolerability of ALT-801 after 12 weeks of treatment. Subjects were stratified for the presence or absence of diabetes at baseline. Fibroscan and cT1 assessments evaluated changes in liver inflammatory and fibrotic activity at the end of 12 weeks of treatment.
Overweight and obese volunteers with BMI ≥28 kg/m^2 were studied because this is the typical population of individuals with NAFLD, and these subjects are able to better tolerate the predicted Pharmacodynamics (PD) effect of weight loss and could even benefit from treatment. A hepatic fat fraction of 10% has been typical for the evaluation of hepatic fat fraction in subjects with NAFLD. In other words, individuals with a liver fat fraction of 10% or greater are typically diagnosed with NAFLD. Diabetic subjects that require insulin, sulfonylureas or DDP-4 inhibitors for control of diabetes were excluded in this study. Exclusions were instituted that might otherwise affect an accurate assessment of the effects of ALT-801 on safety or PD. The BMI upper limit is set to 45 kg/m^2 as subjects over this BMI are no likely to fit into the MRI scanner.
The study, described in this example, was carried out in 94 subjects overweight and obese (body mass index [BMI] ≥28.0 kg/m^2) Type 2 diabetic and non-diabetic subjects with nonalcoholic fatty liver disease (NAFLD) over about 4.5 months, including up to a 35-day screening period, and 85-day treatment period and a 25-day follow-up period, with treatment with ALT-801 (a composition comprising SEQ ID NO.: 1, “study medication”) or placebo administered by subcutaneous (SC) injection once weekly for up to twelve (12) doses.
The safety objective of this study was to assess the safety and tolerability of ALT-801 in 18-65 years old subjects with NAFLD (NAFLD without significant fibrosis, defined as FibroScan® controlled attenuation parameter (CAP) ≥280 dB/m and liver stiffness measurement (LSM)<10 kPa (i.e., indicating the absence of significant fibrosis), magnetic resonance imaging derived proton density fat fraction (MRI-PDFF) ≥10%), hemoglobin Alc (HbAlc) of less than 9.5%, and alanine aminotransferase (ALT) or aspartate aminotransferase (AST) values of ≤[…]. The pharmacodynamic (PD) objectives of this study were to evaluate the effects of ALT-801 on hepatic fat fraction, anthropometric parameters, lipid metabolism, metabolic markers, inflammatory markers, fibrosis markers, and lipotoxicity markers. The pharmacokinetic (PK) objectives of this study were to evaluate the effects of ALT-801 and metformin exposure (drug interactions) on the subjects (e.g., ALT-801 and metformin concentrations in blood over time).
After providing informed consent, subjects underwent a screening period of up to 35 days. Subjects were instructed on how to maintain their normal diets, alcohol consumption and physical activities and not to start any new diets, supplements, or exercise programs at any time while participating in the study. […]

[2] = test system: alanine aminotransferase (ALT) and corrected T1 (cT1); test: Phase 1b 24-week NAFLD study (Example 3): liver inflammation by ALT levels and cT1 imaging; details: all doses, week 24
Description: Provided herein is disclosure of a 12-week extension study of the study provided in Example 1, providing a 24-week a Phase 1b, randomized, double-blind, placebo-controlled study to assess the effects of pemvidutide (also termed herein as ALT-801), the safety of pemvidutide and effects on weight loss, hepatic fat fraction, anthropometric parameters, lipid metabolism, as well as inflammatory, fibrosis and other markers in diabetic and non-diabetic (type 2 diabetes) overweight and obese (BMI≥28.0 kg/m^2) subjects with NAFLD (defined as liver fat content (LFC) by MRI-PDFF ≥10%; absence of significant fibrosis, defined as FibroScan® LSM ≤10 kPa), alanine aminotransferase (ALT) and aspartate aminotransferase (AST) laboratory values of ≤75 IU/L and HbA1c <9.5. Men and women aged 18-65 years were studied. […]
The primary endpoint of this study was a reduction in liver fat content (LFC) by MRI-PDFF at Week 24 compared to Week 0 (zero). […] Adverse events (AEs), including serious and severe AEs, AEs leading to discontinuation, GI tolerability, vital signs, and glycemic control including fasting glucose and HbA1c levels were also measured. […]

[3] = Phase 1b 24-week NAFLD study (Example 3): safety; details: for serious and severe AE observed: unrelated to study medication
Description: Provided herein is disclosure of a 12-week extension study of the study provided in Example 1, providing a 24-week a Phase 1b, randomized, double-blind, placebo-controlled study to assess the effects of pemvidutide (also termed herein as ALT-801), the safety of pemvidutide and effects on weight loss, hepatic fat fraction, anthropometric parameters, lipid metabolism, as well as inflammatory, fibrosis and other markers in diabetic and non-diabetic (type 2 diabetes) overweight and obese (BMI≥28.0 kg/m^2) subjects with NAFLD (defined as liver fat content (LFC) by MRI-PDFF ≥10%; absence of significant fibrosis, defined as FibroScan® LSM ≤10 kPa), alanine aminotransferase (ALT) and aspartate aminotransferase (AST) laboratory values of ≤75 IU/L and HbA1c <9.5. Men and women aged 18-65 years were studied. Diabetic subjects were defined as those that have undergone stable dose (≥3 months) metformin or SLGT-2 therapy and no use of insulin, sulfonylureas, DPP-4, GLP-1 treatment; Ninety-four (94) subjects were enrolled in the initial 12-week Phase 1b NAFLD trial and 83 subjects who completed were invited to receive a total of 12 additional weeks of blinded treatment. Of those subjects, 66 consented to rollover, of which 64 were eligible to participate.
The primary endpoint of this study was a reduction in liver fat content (LFC) by MRI-PDFF at Week 24 compared to Week 0 (zero). Key secondary endpoints include percent (%) weight loss at Week 24 compared to Week 0 (zero), and liver inflammation by alanine aminotransferase (ALT) levels and corrected T1 (cT1) imaging at Week 24 as compared to Week 0 (zero). Adverse events (AEs), including serious and severe AEs, AEs leading to discontinuation, GI tolerability, vital signs, and glycemic control including fasting glucose and HbA1c levels were also measured.

CC[C@H](C)[C@H](NC(=O)[C@H](Cc1ccccc1)NC(=O)[C@H](CCC(=O)O)NC(=O)[C@@H]1CCCCNC(=O)CC[C@H](NC(=O)[C@H](CC(=O)O)NC(=O)[C@H](CC(C)C)NC(=O)[C@H](Cc2ccc(O)cc2)NC(=O)[C@H](CCCCN)NC(=O)[C@H](CO)NC(=O)[C@H](Cc2ccc(O)cc2)NC(=O)[C@H](CC(=O)O)NC(=O)[C@H](CO)NC(=O)[C@@H](NC(=O)[C@H](Cc2ccccc2)NC(=O)[C@@H](NC(=O)CNC(=O)[C@H](CCC(N)=O)NC(=O)C(C)(C)NC(=O)[C@@H](N)Cc2c[nH]cn2)[C@@H](C)O)[C@H](C)O)C(=O)N[C@@H](CCCCNC(=O)C2O[C@@H](OCCCCCCCCCCCCCCCCCC(=O)O)C(O)C(O)[C@@H]2O)C(=O)N[C@@H](C)C(=O)N[C@@H](C)C(=O)N1)C(=O)N[C@@H](CCC(N)=O)C(=O)N[C@@H](Cc1c[nH]c2ccccc12)C(=O)N[C@@H](CC(C)C)C(=O)N[C@@H](CC(C)C)C(=O)N[C@@H](CCC(N)=O)C(=O)N[C@H](C(N)=O)[C@@H](C)O (stereo partly shown) [ALT-801, Pemvidutide]
absolute reduction in liver fat (MRI-PDFF) ([1]; 1.2 mg SC once weekly): 8.9% | relative reduction in liver fat (MRI-PDFF) ([1]; 1.2 mg once weekly): 46.6% | proportion of patients with at least 30% reduction in liver fat content ([1]; 1.2 mg): 65 % of patients | proportion of patients with at least 50% reduction in liver fat content ([1]; 1.2 mg): about 40 % of patients | proportion of patients with normalization in liver fat content (equal or below 5%) ([1]; 1.2 mg): 20 % of patients | absolute reduction in liver fat (MRI-PDFF) ([1]; 1.8 mg SC once weekly): 14.7% | relative reduction in liver fat (MRI-PDFF) ([1]; 1.8 mg once weekly): 68.5% | proportion of patients with at least 30% reduction in liver fat content ([1]; 1.8 mg): 94.4 % of patients | proportion of patients with at least 50% reduction in liver fat content ([1]; 1.8 mg): 72.2 % of patients | proportion of patients with normalization in liver fat content (equal or below 5%) ([1]; 1.8 mg): 55.6 % patients | absolute reduction in liver fat (MRI-PDFF) ([1]; 2.4 mg SC once weekly (4-week titration)): 11.3% | relative reduction in liver fat (MRI-PDFF) ([1]; 2.4 mg once weekly): 57.1% | proportion of patients with at least 30% reduction in liver fat content ([1]; 2.4 mg): 85 % of patients | proportion of patients with at least 50% reduction in liver fat content ([1]; 2.4 mg): 70% | proportion of patients with normalization in liver fat content (equal or below 5%) ([1]; 2.4 mg): 50.0% | relative reductions in liver fat (study conclusion) ([1]; 12 weeks): > 60% | ALT levels [2]: robust reduction of ALT levels | cT1 response (80 ms reduction vs baseline) [2]: high rates of cT1 response | serious and severe AE observed ([3]; 1.2 mg): Salmonella infection | serious and severe AE observed ([3]; 1.8 mg): hypertension >3 weeks post last dose of study medication | number of adverse events leading to treatment discontinuation ([3]; 24 weeks): low across the treatment group | overall safety and tolerability ([3]; 24 weeks): safe and tolerable | severity of gastrointestinal-related adverse events (nausea, vomiting, diarrhea, constipation) ([3]; 24 weeks): mild to moderate | significant ALT elevations ([3]; 24 weeks): No significant ALT elevations were reported | number of serious or severe adverse events ([3]; treatment groups, 24 weeks): low and comparable to the placebo group

Reference: patent US20240269238A1, “Therapeutic Regimens and Methods for Reducing Body Weight in a Subject with Fatty Liver Disease using a GLP-1R and GCGR Agonist” (Spitfire Pharma LLC, priority 2022, published 2024)
